Data on two compounds can be found in publication PMC11786723, “Endoplasmic reticulum membrane remodeling by targeting reticulon-4 induces pyroptosis to facilitate antitumor immune” (Protein & Cell, 2024).

Assay [1] has as its target T1, reticulon-4 (RTN4/Nogo) (Homo sapiens, UniProt Q9NQC3).
T1 sequence (Q9NQC3 1-373 isoform Q9NQC3-2): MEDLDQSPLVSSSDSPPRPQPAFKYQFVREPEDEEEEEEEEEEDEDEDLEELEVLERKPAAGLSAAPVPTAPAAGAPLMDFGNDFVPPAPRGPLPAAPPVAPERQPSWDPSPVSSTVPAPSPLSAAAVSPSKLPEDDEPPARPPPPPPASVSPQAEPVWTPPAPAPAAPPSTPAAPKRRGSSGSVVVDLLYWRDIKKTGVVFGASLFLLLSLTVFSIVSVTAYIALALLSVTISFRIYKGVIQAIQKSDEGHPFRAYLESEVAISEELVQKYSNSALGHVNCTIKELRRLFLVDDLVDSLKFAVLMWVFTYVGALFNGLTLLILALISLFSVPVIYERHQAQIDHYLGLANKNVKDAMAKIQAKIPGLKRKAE
The assay can be described thus: microscale thermophoresis (MST); supported by competitive pull-down. Format: binding. The arrangement: RTN4B isoform focused on; MST construct printed only as RTN4.

Assay [2] deals with T1, reticulon-4 (RTN4/Nogo). As to the kind of experiment: microscale thermophoresis (MST); HuProt human proteome microarray and competitive pull-down. The arrangement: RTN4B isoform predominantly captured in pull-down; MST construct printed only as RTN4. It counts as binding.

Regarding `COc1c(O)cc2oc3cc(O)c(CC=C(C)C)c(O)c3c(=O)c2c1CC=C(C)C` [α-MG, α-mangostin], at reticulon-4 (RTN4/Nogo) [1], the affinity, expressed as Kd, was 12.1 ± 1.28 nM.
On reticulon-4 (RTN4/Nogo) [2], biotin-α-MG registered a Kd of 39 ± 1.09 nM.
